US20170334899A1, “AMINO-SUBSTITUTED ISOTHIAZOLES” (Bayer Pharma Aktiengesellschaft, priority 2014, published 2017)

What follows are compounds tested against T1, catalytic domain of human Bub1 (amino acids 704-1085) (Homo sapiens, UniProt O43683) (assay: Bub1 kinase assay (TR-FRET)). Details: 10 μM ATP, avg, read-out: Bub1 avg (IC50 [mol/l]).
T1 construct: catalytic domain of human Bub1 (amino acids 704-1085); His6 (N); made in house; host or cells: insect cells (Hi5)
Assay type: biochemical
Summary of the method: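 Readout is the 665/620 nm TR-FRET ratio from anti-phosphoserine antibody, Eu-labelled anti-mouse IgG and streptavidin-XL665, scaled between no-enzyme and uninhibited controls. Reaction: 1 μM biotinylated peptide, 10 μM ATP, 60 min, 22 °C, after 15 min compound preincubation with His6-Bub1 (704-1085, insect-expressed, ~200 ng/ml).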

T1 sequence (O43683 704-1085): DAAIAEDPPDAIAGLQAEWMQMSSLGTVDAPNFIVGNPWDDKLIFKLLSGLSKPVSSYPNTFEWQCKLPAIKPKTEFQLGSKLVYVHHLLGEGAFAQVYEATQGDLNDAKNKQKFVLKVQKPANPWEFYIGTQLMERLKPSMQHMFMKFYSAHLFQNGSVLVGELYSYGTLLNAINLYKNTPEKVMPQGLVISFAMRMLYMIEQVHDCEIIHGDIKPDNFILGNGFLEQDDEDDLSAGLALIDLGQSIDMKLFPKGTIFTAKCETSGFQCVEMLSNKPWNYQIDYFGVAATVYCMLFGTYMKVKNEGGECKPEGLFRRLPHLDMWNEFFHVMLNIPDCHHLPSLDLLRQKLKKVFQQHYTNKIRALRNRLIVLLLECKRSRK

SMILES | IC50
Cc1nsc(Nc2cc(C#N)ccn2)c1C(=O)Nc1ccc(OCCCNC(=O)OC(C)(C)C)nc1 [Example 43, tert-Butyl [3-({5-[({5-[(4-cyanopyridin-2-yl)amino]-3-methyl-1,2-thiazol-4-yl}-carbonyl)amino]pyridin-2-yl}oxy)propyl]carbamate] | ≥ 20 µM
Cc1nsc(Nc2cnc(C(F)(F)F)cn2)c1C(=O)Nc1ccc(CCC2CCN(CCC(F)(F)F)CC2)nc1 [Example 420, 3-Methyl-5-{[5-(trifluoromethyl)pyrazin-2-yl]amino}-N-(6-{2-[1-(3,3,3-trifluoro-propyl)piperidin-4-yl]ethyl}pyridin-3-yl)-1,2-thiazole-4-carboxamide] | ≥ 20 µM
Cc1nsc(Nc2cnc(C(F)(F)F)cn2)c1C(=O)Nc1ccc(OCCCNC(=O)C(F)(F)F)nc1 [Example 428, 3-Methyl-N-(6-{3-[(trifluoroacetyl)amino]propoxy}pyridin-3-yl)-5-{[5-(trifluoro-methyl)pyrazin-2-yl]amino}-1,2-thiazole-4-carboxamide] | > 20 µM
COC(=O)c1cccc(NC(=O)c2c(C)nsc2Nc2cnc3ccccc3n2)c1 [Example 50, Methyl 3-({[3-methyl-5-(quinoxalin-2-ylamino)-1,2-thiazol-4-yl]carbonyl}amino)-benzoate] | ≥ 20 µM
Cc1nsc(Nc2ccc(C#N)cn2)c1C(=O)Nc1ccc(OC2CCCN(C(=O)OC(C)(C)C)C2)nc1 (centres unmarked) [Example 36, tert-Butyl 3-({5-[({5-[(5-cyanopyridin-2-yl)amino]-3-methyl-1,2-thiazol-4-yl}-carbonyl)amino]pyridin-2-yl}oxy)piperidine-1-carboxylate] | ≥ 20 µM
Cc1nsc(Nc2cnccn2)c1C(=O)Nc1ccc(OCCCN)nc1 [Example 48, N-[6-(3-Aminopropoxy)pyridin-3-yl]-3-methyl-5-(pyrazin-2-ylamino)-1,2-thiazole-4-carboxamide] | ≥ 20 µM
Cc1nsc(Nc2nc3c(C(F)(F)F)cccc3s2)c1C(=O)Nc1ccc(OCCO)nc1 [Example 2, N-[6-(2-Hydroxyethoxy)pyridin-3-yl]-3-methyl-5-{[4-(trifluoromethyl)-1,3-benzo-thiazol-2-yl]amino}-1,2-thiazole-4-carboxamide] | ≥ 20 µM
Cc1nsc(Nc2cnc3ccccc3n2)c1C(=O)Nc1ccc(OCCCNC(=O)OC(C)(C)C)nc1 [Example 42, tert-Butyl (3-{[5-({[3-methyl-5-(quinoxalin-2-ylamino)-1,2-thiazol-4-yl]carbonyl}-amino)pyridin-2-yl]oxy}propyl)carbamate] | ≥ 20 µM
Cc1nsc(Nc2cnc(C(F)(F)F)cn2)c1C(=O)Nc1ccc(F)c(O[C@H]2CCN(CCC(F)(F)F)C2)c1 [Example 415, N-(4-Fluoro-3-{[(3S)-1-(3,3,3-trifluoropropyl)pyrrolidin-3-yl]oxy}phenyl)-3-methyl-5-{[5-(trifluoromethyl)pyrazin-2-yl]amino}-1,2-thiazole-4-carboxamide] | > 20 µM
Cc1nsc(Nc2ccc(C#N)cn2)c1C(=O)Nc1ccc(OC2CCCN(CC(F)(F)F)C2)nc1 (centres unmarked) [Example 40, 5-[(5-Cyanopyridin-2-yl)amino]-3-methyl-N-(6-{[1-(2,2,2-trifluoroethyl)piperidin-3-yl]oxy}pyridin-3-yl)-1,2-thiazole-4-carboxamide] | ≥ 20 µM
CC(=O)Nc1ccc(NC(=O)c2c(C)nsc2Nc2ccc(C#N)cn2)cn1 [Example 435, N-(6-Acetamidopyridin-3-yl)-5-[(5-cyanopyridin-2-yl)amino]-3-methyl-1,2-thiazole-4-carboxamide] | > 20 µM
Cc1nsc(Nc2cnc3ccccc3n2)c1C(=O)Nc1cccc(C(=O)OC(C)(C)C)c1 [Example 49, tert-Butyl 3-({[3-methyl-5-(quinoxalin-2-ylamino)-1,2-thiazol-4-yl]carbonyl}amino)-benzoate] | ≥ 20 µM
Cc1nsc(Nc2ccc(C#N)cn2)c1C(=O)Nc1ccc(OCCCNC(=O)OC(C)(C)C)nc1 [Example 46, tert-Butyl [3-({5-[({5-[(5-cyanopyridin-2-yl)amino]-3-methyl-1,2-thiazol-4-yl}-carbonyl)amino]pyridin-2-yl}oxy)propyl]carbamate] | ≥ 20 µM
Cc1nsc(Nc2cnc(C(F)(F)F)cn2)c1C(=O)Nc1ccc(OCCN2CCC(F)(F)CC2)nc1 [Example 407, N-{6-[2-(4,4-Difluoropiperidin-1-yl)ethoxy]pyridin-3-yl}-3-methyl-5-{[5-(trifluoromethyl)pyrazin-2-yl]amino}-1,2-thiazole-4-carboxamide] | > 20 µM
Cc1nsc(Nc2ccc(C#N)cn2)c1C(=O)Nc1ccc(OC[C@H]2CCN(CC(F)(F)F)C2)nc1 [Example 405, 5-[(5-Cyanopyridin-2-yl)amino]-3-methyl-N-(6-{[(35)-1-(2,2,2-trifluoroethyl)pyrrolidin-3-yl]methoxy}pyridin-3-yl)-1,2-thiazole-4-carboxamide] | > 20 µM
Cc1nsc(Nc2cnc3ccccc3n2)c1C(=O)Nc1cccc(C(=O)N[C@H](C(=O)OC(C)(C)C)[C@@H](C)OC(C)(C)C)c1 [Example 57, tert-Butyl O-tert-butyl-N-[3-({[3-methyl-5-(quinoxalin-2-ylamino)-1,2-thiazol-4 yl]carbonyl}amino)-benzoyl]threoninate] | ≥ 20 µM
COCCOc1ccc(NC(=O)c2c(C)nsc2Nc2nc3c(C(F)(F)F)cccc3s2)cn1 [Example 3, N-[6-(2-Methoxyethoxy)pyridin-3-yl]-3-methyl-5-{[4-(trifluoromethyl)-1,3-benzo-thiazol-2-yl]amino}-1,2-thiazole-4-carboxamide] | ≥ 20 µM
Cc1nsc(Nc2cnc(C(F)(F)F)cn2)c1C(=O)Nc1ccc(O[C@@H]2CN(CCC(F)(F)F)C[C@@H]2F)nc1 [Example 409, N-(6-{[(3R,4S)-4-Fluoro-1-(3,3,3-trifluoropropyl)pyrrolidin-3-yl]oxy}pyridin-3-yl)-3-methyl-5-{[5-(trifluoromethyl)pyrazin-2-yl]amino}-1,2-thiazole-4-carboxamide] | > 20 µM
Cc1nsc(Nc2cnc(C(F)(F)F)cn2)c1C(=O)Nc1ccc(OC[C@H]2CCCN(CCC(F)(F)F)C2)nc1 [Example 378, 3-methyl-5-{[5-(trifluoromethyl)pyrazin-2-yl]amino}-N-(6-{[(3S)-1-(3,3,3-trifluoropropyl)piperidin-3-yl]methoxy}pyridin-3-yl)-1,2-thiazole-4-carboxamide] | ≥ 20 µM
Cc1nsc(Nc2cnc3ccccc3n2)c1C(=O)Nc1cccc(C(=O)N[C@@H](CCC(N)=O)C(=O)OC(C)(C)C)c1 [Example 56, tert-butyl N^2-[3-({[3-methyl-5-(quinoxalin-2-ylamino)-1,2-thiazol-4-yl]carbonyl}amino)-benzoyl]glutaminate] | ≥ 20 µM
Cc1nsc(Nc2cnc(C(F)(F)F)cn2)c1C(=O)Nc1ccc(O[C@@H]2CN(CC(F)F)C[C@@H]2F)nc1 [Example 411, N-(6-{[(3R,4S)-1-(2,2-Difluoroethyl)-4-fluoropyrrolidin-3-yl]oxy}pyridin-3-yl)-3-methyl-5-{[5-(trifluoromethyl)pyrazin-2-yl]amino}-1,2-thiazole-4-carboxamide] | > 20 µM
Cc1nsc(Nc2cnc(C(F)(F)F)cn2)c1C(=O)Nc1ccc(F)c(OC[C@H]2CCCN(CC(F)F)C2)c1 [Example 400, N-(3-{[(3S)-1-(2,2-difluoroethyl)piperidin-3-yl]methoxy}-4-fluorophenyl)-3-methyl-5-{[5-(trifluoromethyl)pyrazin-2-yl]amino}-1,2-thiazole-4-carboxamide] | > 20 µM
Cc1nsc(Nc2cnc3ccccc3n2)c1C(=O)Nc1cccc(C(=O)N2CCN(C(=O)OC(C)(C)C)CC2)c1 [Example 55, tert-Butyl 4-[3-({[3-methyl-5-(quinoxalin-2-ylamino)-1,2-thiazol-4-yl]carbonyl}amino)-benzoyl]piperazine-1-carboxylate] | ≥ 20 µM
Cc1nsc(Nc2ccc(C#N)cn2)c1C(=O)Nc1ccc(Nc2ccc(F)c(F)c2)nc1 [Example 433, 5-[(5-Cyanopyridin-2-yl)amino]-N-{6-[(3,4-difluorophenyl)amino]pyridin-3-yl}-3-methyl-1,2-thiazole-4-carboxamide] | > 20 µM
Cc1nsc(Nc2cc(C#N)ccn2)c1C(=O)Nc1ccc(OC2CCCNC2)nc1 (centres unmarked) [Example 35, 5-[(4-Cyanopyridin-2-yl)amino]-3-methyl-N-[6-(piperidin-3-yloxy)pyridin-3-yl]-1,2-thiazole-4-carboxamide] | ≥ 20 µM
Cc1nsc(Nc2cnc(C(F)(F)F)cn2)c1C(=O)Nc1ccc(F)c(O[C@@H]2CCN(CC(F)(F)F)C2)c1 [Example 413, N-(4-Fluoro-3-{[(3R)-1-(2,2,2-trifluoroethyl)pyrrolidin-3-yl]oxy}phenyl)-3-methyl-5-{[5-(trifluoromethyl)pyrazin-2-yl]amino}-1,2-thiazole-4-carboxamide] | > 20 µM
Cc1nsc(Nc2cnc(C(F)(F)F)cn2)c1C(=O)Nc1ccc(OC2CCNCC2)c(F)c1 [Example 431, N-[3-Fluoro-4-(piperidin-4-yloxy)phenyl]-3-methyl-5-{[5-(trifluoromethyl)pyrazin-2-yl]amino}-1,2-thiazole-4-carboxamide] | > 20 µM
Cc1nsc(Nc2cnc(C(F)(F)F)cn2)c1C(=O)Nc1ccc(F)c(OC[C@@H]2CCN(CC(F)F)C2)c1 [Example 403, N-(3-{[(3R)-1-(2,2-difluoroethyl)pyrrolidin-3-yl]methoxy}-4-fluorophenyl)-3-methyl-5-{[5-(trifluoromethyl)pyrazin-2-yl]amino}-1,2-thiazole-4-carboxamide] | > 20 µM
Cc1nsc(Nc2cnc(C(F)(F)F)cn2)c1C(=O)Nc1ccc(F)c(O[C@@H]2CCN(CC(F)F)C2)c1 [Example 412, N-(3-{[(3R)-1-(2,2-Difluoroethyl)pyrrolidin-3-yl]oxy}-4-fluorophenyl)-3-methyl-5-{[5-(trifluoromethyl)pyrazin-2-yl]amino}-1,2-thiazole-4-carboxamide] | > 20 µM
